Reference: PubChem BioAssay AID1918993 (Molecular Pharmacology Branch, DTP, NCI, 2023)
“And” between values parts separate entries of the source, which are not always exact repeats. Equal entries are not always repeated.

Test system: 233499-124-R-J3-PDC complex spheroid growth
Assay: Anticancer human tumor 233499-124-R-J3-PDC patient-derived colon adenocarcinoma cell line growth inhibition [AhR]
Details: for viability, T/C: stronger effect = lower value
From the text: Multicellular complex tumor spheroid response to aryl hydrocarbon receptor antagonists in combination with a variety of drugs and investigational agents in selected tumor cell lines
The current study was undertaken to assess response to aryl hydrocarbon receptor antagonists in combination with standard-of-care drugs and investigational agents in solid tumor complex spheroid models. Complex spheroids include a stromal component modeled by human endothelial cells (HUVEC) and fibroblasts modeled by human mesenchymal stem cells (MSCs). The concentration ranges selected for each drug and investigational agent were based upon clinically achievable concentrations if the clinical Cmax of the agent was known.
Compounds. The drugs and investigational agents: BAY 2416964 (NSC825713), GNF351 (NSC835774), CH-223191 (NSC835775), CPI-455 (NSC825282), aza-TdCyd (NSC777586), decitabine (NSC127716), belinostat (NSC758774), entinostat (NSC756642), pevonedistat (NSC761192), tazemetostat (NSC777109), talazoparib (NSC765396), olaparib (NSC753686), selinexor (NSC780203), nedisertib (M3814, NSC802822), bortezomib (NSC756655), venetoclax (NSC766270), doxorubicin (NSC123127), elimusertib (BAY189344, NSC800525), ceralasertib (AZD6738, NSC777638), TAK-243 (NSC785004), alisertib (NSC759677), etoposide (NSC141540), topotecan (NSC609699), eribulin (NSC707389), gemcitabine (NSC613327), carboplatin (NSC241240), cisplatin (NSC119875), and SN-38 (NSC673596) were obtained from the National Cancer Institute (NCI) Developmental Therapeutics Program Chemical Repository (32). The FDA-approved anticancer drug set is available from the Developmental Therapeutics Program at https://dtp.cancer.gov/organization/dscb/obtaining/available plates.htm. […] The stock solutions were prepared in dimethyl sulfoxide (DMSO, Sigma-Aldrich, St. Louis, MO, cat. D2650), except for the platinum compounds which were prepared in saline (Quality Biological, Gaithersburg, MD, cat. 114-055-101), at 800-fold the tested concentration and stored at -70 degrees C prior to their use. All drugs and investigational agents were tested over a range starting from a high concentration at or near the clinical Cmax and decreasing in half-log increments. If the clinical Cmax for an agent had not been determined, the highest concentration tested was 10 microM (Table 1).
Cell Culture. All cells were maintained in an incubator at 37 degrees C and 5% CO2 with 95% humidity. The PDC lines were cultured according to standard operating procedures established by the NCI PDMR (https://pdmr.cancer.gov). Briefly, all PDCs were thawed and cultured in Matrigel-coated flasks prepared with a working solution of 1X Ham's F-12 nutrient mix, without supplementation (Invitrogen, Waltham, MA, cat. 11765054), 100 U/mL penicillin-streptomycin (Invitrogen, cat. 15140122), and 2.5% Matrigel (Corning Inc., Corning, NY, cat. 354248) for the first three passages. All PDCs were cultured in complete DMEM/F-12 media containing advanced DMEM/F-12 (Invitrogen, cat. 12634028), 4.9% defined fetal bovine serum, heat inactivated (HyClone Laboratories Inc., Logan, UT, cat. SH30070.03HI), 389 ng/mL hydrocortisone (Sigma-Aldrich, cat. H4001), 9.7 ng/mL human EGF recombinant protein (Invitrogen, cat. PHG0313), 23.4 microg/mL adenine (Sigma-Aldrich, cat. A2786), 97.3 U/mL penicillin-streptomycin (Invitrogen, cat. 15140122), 1.9 mM L-glutamine (Invitrogen, cat. 25030081), and 9.7 microM Y-27632 dihydrochloride (Tocris Bioscience, Bristol, United Kingdom, cat. 1254). The PDCs were cultured in complete DMEM/F12 media without 10 microM Y-27632 dihydrochloride for at least two passages prior to the screen. The established cell lines NCI-H1341 and […] were cultured in DMEM/F-12, HEPES (Invitrogen, cat. 11330032), 5% defined fetal bovine serum (HyClone Laboratories Inc., cat. SH30070.03), ITS premix universal culture supplement [insulin (5 microg/mL), transferrin (5 microg/mL), and selenious acid (5 ng/mL)] […]
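Also: spheroids exposed to agents for seven days before reading.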

SMILES | IC50 (curve of compound) | viability, T/C (compound 0.0316 µM) | viability, T/C (compound 0.1 µM) | viability, T/C (compound 0.316 µM) | viability, T/C (compound 1 µM) | viability, T/C (compound 3.16 µM) | viability, T/C (compound 10 µM) | also measured
CC(C)CC(NC(=O)C(Cc1ccccc1)NC(=O)c1cnccn1)B(O)O (stereo not given) | 15.8 nM and 17.3 nM and 11.3 nM |  |  |  |  |  |  | viability, T/C (compound 0.000949 µM): 104% and 97.6% and 89.6%; viability, T/C (compound 0.003 µM): 113% and 111% and 104%; viability, T/C (compound 0.00949 µM): 87.6% and 93.6% and 59.1%; viability, T/C (compound 0.03 µM): 3.07% and 10.3% and 0.16%; viability, T/C (compound 0.0949 µM): 0.13% and 0.15% and 0.11%; viability, T/C (compound 0.3 µM): 0.19% and 0.2% and 0.18%
CC(C)c1c(-c2ccccc2)nc2c(C#N)c[nH]n2c1=O | > 10000 nM | 101% and 108% and 114% | 105% (2×) and 103% | 107% and 96% and 113% | 94% and 102% and 93.5% | 98.7% and 110% and 117% | 117% and 124% and 105% | 
CC(CO)NC(=O)c1cc(-c2ccc(Cl)cc2)nn(-c2cnn(C)c2)c1=O (stereo not given) |  |  |  | 94.2% [middle of 21 runs] |  | 91.3% [middle of 19 runs] |  | IC50 (compound alone, run of 07/12/2022): > 10000 nM
CC1(C)CCC(CN2CCN(c3ccc(C(=O)NS(=O)(=O)c4ccc(NCC5CCOCC5)c([N+](=O)[O-])c4)c(Oc4cnc5[nH]ccc5c4)c3)CC2)=C(c2ccc(Cl)cc2)C1 | > 10000 nM and 8740 nM and 7260 nM | 87.2% and 90.9% and 106% | 102% and 112% and 109% | 92.4% and 105% and 97.8% | 105% and 101% and 104% | 112% and 114% and 98.7% | 109% and 42.8% and 31.2% | 
CC1COCCN1c1cc(-c2ccnn2C)c2ccnc(-c3ccn[nH]3)c2n1 (stereo not given) | 784 nM and > 1000 nM and 642 nM | 91.3% and 96.4% and 105% | 89.3% and 82.8% and 95.2% | 75.3% and 74.5% and 69.8% | 43% and 64% and 37.5% |  |  | viability, T/C (compound 0.00316 µM): 94.6% and 92.4% and 98.3%; viability, T/C (compound 0.01 µM): 88.1% and 91.6% and 75%
CC1COCCN1c1cc(C2(S(C)(=N)=O)CC2)nc(-c2ccnc3[nH]ccc23)n1 (stereo not given) | > 10000 nM | 103% and 90.3% and 112% | 108% and 97% and 92.9% | 92.2% and 95% and 95.2% | 105% and 97.5% and 94.2% | 89.7% and 90.8% and 96.2% | 91.8% and 83.7% and 83.1% | 
CCN(c1cc(-c2ccc(CN3CCOCC3)cc2)cc(C(=O)NCc2c(C)cc(C)[nH]c2=O)c1C)C1CCOCC1 | > 3000 nM |  |  |  |  |  |  | viability, T/C (compound 0.00949 µM): 92.4% and 97.3% and 86.5%; viability, T/C (compound 0.03 µM): 107% and 97% and 98%; viability, T/C (compound 0.0949 µM): 96.5% and 90.3% and 94.9%; viability, T/C (compound 0.3 µM): 103% and 96.3% and 91.4%; viability, T/C (compound 0.949 µM): 102% and 109% and 100%; viability, T/C (compound 3 µM): 106% and 97.9% and 96.6%
CC[C@@]1(O)C(=O)OCc2c1cc1n(c2=O)Cc2cc3c(CN(C)C)c(O)ccc3nc2-1 | > 100 nM | 86.8% and 86.6% and 108% | 92.3% and 83.2% and 89.9% |  |  |  |  | viability, T/C (compound 0.000316 µM): 104% (2×) and 97.5%; viability, T/C (compound 0.001 µM): 107% and 86.7% and 95.5%; viability, T/C (compound 0.00316 µM): 94.7% and 92% and 87.1%; viability, T/C (compound 0.01 µM): 95% and 99.2% and 93.8%
CCc1c2c(nc3ccc(O)cc13)-c1cc3c(c(=O)n1C2)COC(=O)[C@]3(O)CC | > 300 nM |  |  |  |  |  |  | viability, T/C (compound 0.000949 µM): 117% and 96.2% and 99.4%; viability, T/C (compound 0.003 µM): 93.8% and 87.6% and 85.8%; viability, T/C (compound 0.00949 µM): 89.5% and 85.3% and 77.4%; viability, T/C (compound 0.03 µM): 69.6% and 75.1% and 56.9%; viability, T/C (compound 0.0949 µM): 84.1% and 84% and 77.8%; viability, T/C (compound 0.3 µM): 98.5% and 95.3% and 73.3%
COc1cc(C2c3cc4c(cc3C(OC3OC5COC(C)OC5C(O)C3O)C3COC(=O)C23)OCO4)cc(OC)c1O (stereo not given) | > 10000 nM | 101% and 87.7% and 99.6% | 92.9% and 95.8% and 106% | 98.6% and 95.4% and 95.7% | 109% and 93.1% and 94.7% | 91.3% and 92.4% and 110% | 93.3% and 78.6% and 85.6% | 
COc1cc(Nc2ncc3c(n2)-c2ccc(Cl)cc2C(c2c(F)cccc2OC)=NC3)ccc1C(=O)O | > 10000 nM | 86.8% and 75.8% and 70.1% | 82.6% and 65.5% and 75.6% | 80.1% and 102% and 79.4% | 84.1% and 87.8% and 83.3% | 97.7% and 89.4% and 91.1% | 82.9% and 90.2% and 86% | 
COc1ccc([C@@H](O)c2cc(-c3ncnc4cc(N5CCOCC5)ccc34)c(F)cc2Cl)nn1 | > 10000 nM | 99.4% and 94% and 95.8% | 95.7% and 89% and 102% | 94.3% and 102% and 98.5% | 99.9% and 87% and 104% | 92.7% and 89.7% and 82.3% | 98.3% and 91% and 81.9% | 
